± gives the expanded uncertainty stated by the source.
Details: Crystal, Calculated from knudsen effusion weight loss

[Br-].[Br-].[Pb+2] [lead(II) bromide]
Details	vapor or sublimation pressure [kPa]
532.3 K	7e-06 ± 2e-06
533 K	8e-06 ± 2e-06
533.1 K	8e-06 ± 2e-06
553.2 K	3.6e-05 ± 9e-06
553.7 K	2.6e-05 ± 6e-06
553.9 K	2.7e-05 ± 7e-06
571.5 K	6.1e-05 ± 1.5e-05
572.5 K	7.8e-05 ± 1.9e-05
573.7 K	7.5e-05 ± 1.8e-05
590.8 K	0.000233 ± 5.7e-05
591.9 K	0.000178 ± 4.3e-05
592.6 K	0.0002 ± 4.9e-05
611.3 K	0.000418 ± 0.0001
611.5 K	0.000573 ± 0.00014
612.9 K	0.000512 ± 0.00013
632.7 K	0.000886 ± 0.00022
633.5 K	0.001153 ± 0.00029
633.9 K	0.001334 ± 0.00034
